Earlier results, collected in patent US20220095646A1, “METHODS FOR THE PRODUCTION AND USE OF MYCELIATED AMINO ACID-SUPPLEMENTED FOOD COMPOSITIONS” (MycoTechnology, Inc., priority 2019, published 2022).

Compound: N[C@@H](CC(=O)O)C(=O)O [Aspartic acid]
- Taste thresholds (Kato et al. 1989), sour: 0.03 mg/mL
- Taste thresholds (Kato et al. 1989), umami: 1 mg/mL

Compound: N[C@@H](CCC(=O)O)C(=O)O [Glutamic acid]
- Taste thresholds (Kato et al. 1989), sour: 0.05 mg/mL
- Taste thresholds (Kato et al. 1989), umami: 0.3 mg/mL

Compound: CC[C@H](C)[C@H](N)C(=O)O [Isoleucine]
- Taste thresholds (Kato et al. 1989), bitter: 0.9 (bitter) mg/mL

Compound: NCCCC[C@H](N)C(=O)O [Lysine]
- Taste thresholds (Kato et al. 1989), sweet and bitter (sweet and bitter): 0.5 (sweet and bitter) mg/mL

Compound: C[C@@H](O)[C@H](N)C(=O)O [Threonine]
- Taste thresholds (Kato et al. 1989), sweet (sweet): 2.6 (sweet) mg/mL

Compound: CC(C)[C@H](N)C(=O)O [Valine]
- Taste thresholds (Kato et al. 1989), bitter: 0.4 (bitter) mg/mL
